The nature of data set [1]: Particle size, PdI and zeta potential of mRNA-encapsulating LNPs by dynamic light scattering (Experimental Example 2). It is filed as physicochemical. As to the method: An acidic buffer solution (total amount: 1080 µL) of nucleic acid was prepared by weighing 7.2 µg of mRNA solution (0.6 mg/mL) in a 5 mL tube and adding acidic malate buffer (20 mM, pH 3.0).
An acidic buffer solution of nucleic acid and an ethanol solution of lipid were each weighed in a syringe.
The particle size, PdI (Polydispersity Index), and zeta potential of the mRNA-encapsulating LNP prepared by the method of the above-mentioned 1 were measured by a dynamic light scattering method (Zetasizer Nano; Malvern).

For data set [2], the system named is liver. Put plainly: In vivo gene expression, luciferase luminescence in the liver after tail vein administration (Experimental Example 4). The following applies: BALB/c mouse, mRNA 0.05 mg/kg; for amount of luminescence (photons/sec) in liver: tail vein, 4.5 hr after administration, LNP cationic lipid:DOPC:Chol:DMG-PEG2k = 52.5:7.5:40:1.5, prepared as in Experimental Example 2; for relative amount of luminescence: liver luminescence relative to cationic lipid of Comparative Example. As to the method: LNP encapsulating mRNA that expresses luciferase (cationic lipid:DOPC:Chol:DMG-PEG2k = 52.5:7.5:40:1.5 (molar ratio)) was prepared by the method described in [Experimental Example 2], 1.
(§1) The prepared each mRNA-encapsulating LNP dispersion was administered from the tail vein of BALB/c mouse (male, 5-week-old). The dose of mRNA was set to 0.05 mg per 1 kg body weight of the mouse, and the dose of the mRNA-encapsulating LNP dispersion was set to 10 µL per 1 g body weight of the mouse. After 4.5 hr from the administration of the mRNA-encapsulating LNP dispersion, a PBS solution of D-luciferin potassium was administered into the abdominal cavity of the mouse. The dose of D-luciferin potassium was set to 3 mg per mouse, and the dose of the PBS solution of D-luciferin potassium was set to 200 µL per mouse. After 15 min from the administration of the PBS solution of D-luciferin potassium, the mouse was euthanized, and the liver was isolated. The luminescence in the liver was quantified using an in vivo imaging system (IVIS) with an exposure of 10 sec. The amount of luminescence in the liver was quantified by image analysis using Live Imaging software attached to IVIS. The amount of luminescence (photons/sec) was calculated from the acquired image and used as an index of gene expression activity. The cationic lipids used, the luminescence intensity in the liver, and the relative luminescence intensity (= luminescence intensity in the liver when cationic lipid of Example was used/luminescence intensity in the liver when cationic lipid of Comparative Example was used) are shown in Table 7-1 to Table 7-3. "E+0a" (a: integer) indicated in Table 7-1 to Table 7-3 means "10^a". For example, "3.94E+09" means "3.94×10^9". […]

Data set [3] concerns HeLa cells. Nature of the data set: In vitro gene expression in HeLa cells (luciferase mRNA-encapsulating LNP, cumulative luminescence in 24 hr). The following applies: for cumulative luciferase luminescence intensity (RLU) in 24 hr: LNP cationic lipid:DOPC:Chol:DMG-PEG2k = 50:10:40:1, mRNA 0.2 µg per dish, E+0a means 10^a; for relative luminescence intensity: cumulative intensity in 24 hr relative to cationic lipid of Comparative Example.
Experimental: LNP encapsulating mRNA that expresses luciferase (cationic lipid:DOPC:Chol:DMG-PEG2k = 50:10:40:1 (molar ratio)) was prepared by the method described in [Experimental Example 2], 1.
HeLa cells, which are human cervical cancer cells, were seeded in a 3.5 cm dish at 5.0×10^4 cells/2 mL/Dish 24 hours before transfection. After 24 hr, the medium was changed to a culture medium (D-MEM) containing 0.1 mM D-luciferin. The prepared mRNA-encapsulating LNP was diluted with PBS to an mRNA concentration of about 1 µg/mL. The diluted mRNA-encapsulating LNP solution (about 200 µL, mRNA: 0.2 µg) was added to a 3.5 cm dish, and set in an incubator luminometer KronosDio. The luminescence intensity of luciferase was measured for 2 min every one hour. The cumulative luciferase luminescence intensity in 24 hr was calculated from the obtained time change of expression. […] In Comparative Example, the cationic lipid described in Table 2 was used.

Data set [4] can be described thus: Particle size, PdI and zeta potential of mRNA-encapsulating LNPs by dynamic light scattering (Experimental Example 6). It counts as physicochemical. The following applies: mRNA-encapsulating LNP; for zeta potential (mV): cationic lipid:DOPC:Chol=49:7.5:42.5:1, dispersion in TBS (Tables 8-1, 8-2); for PdI / particle size (nm): cationic lipid:DOPC:Chol=49:7.5:42.5:1, dispersion in TBS, dynamic light scattering (Tables 8-1, 8-2). As for the experimental part: An acidic buffer solution (total amount: 1300 µL) of nucleic acid was prepared by weighing 6.5 µg of mRNA solution (0.6 mg/mL) in a 5 mL tube and adding acidic citrate buffer (20 mM, pH 5.0).
An acidic buffer solution of nucleic acid and an ethanol solution of lipid were each weighed in a syringe. […] The obtained concentrate was diluted with TBS to a lipid concentration of 2 mM to give a dispersion containing LNP.
The particle size, PdI (Polydispersity Index), and zeta potential of the mRNA-encapsulating LNP prepared by the method of the above-mentioned 1 were measured by a dynamic light scattering method (Zetasizer Nano; Malvern). […]

Data set [5] has as its system liver. Put plainly: In vivo gene expression, luciferase luminescence in the liver after tail vein administration (Experimental Example 7). To be noted: BALB/c mouse, mRNA 0.05 mg/kg; for amount of luminescence (photons/sec) in liver: tail vein, 4.5 hr after administration, LNP cationic lipid:DOPC:Chol:DMG-PEG2k = 52.5:7.5:40:1.5, prepared as in Experimental Example 6; for relative amount of luminescence: liver luminescence relative to cationic lipid of Comparative Example. As to the method: LNP encapsulating mRNA that expresses luciferase (cationic lipid:DOPC:Chol:DMG-PEG2k = 52.5:7.5:40:1.5 (molar ratio)) was prepared by the method described in [Experimental Example 6], 1.
as §1, with “9.” for “7-1 to Table 7-3. "E+0a" (a: integer) indicated in Table 7-1 to Table 7-3 means "10^a".”

Where [6] appears, read: mRNA-encapsulating LNP, cationic lipid:DOPC:Chol = 50:10:40 (molar ratio) + DMG-PEG2k about 1 mol, Polydispersity Index, dynamic light scattering.
Setting [7] is: mRNA-encapsulating LNP, cationic lipid:DOPC:Chol = 50:10:40 (molar ratio) + DMG-PEG2k about 1 mol, Zetasizer Nano.
Where [8] appears, read: mRNA-encapsulating LNP, cationic lipid:DOPC:Chol = 50:10:40 (molar ratio) + DMG-PEG2k about 1 mol, dynamic light scattering.
[9] abbreviates: mRNA-encapsulating LNP containing the cationic lipid, dispersion in PBS (Table 5-3).
Setting [10] is: mRNA-encapsulating LNP containing the cationic lipid, dispersion in PBS, dynamic light scattering (Table 5-3).

Consider `CCCCCCCC/C=C\CCCCCCCC(=O)Oc1ccc(CC(=O)OCCC2CCN(CCSSCCN3CCC(CCOC(=O)Cc4ccc(OC(=O)CCCCCCC/C=C\C[C@H](CCCCCC)OC(C)=O)cc4)CC3)CC2)cc1` [compound 1], for which, in data set [1] (setting [6]), the PdI turned out to be 0.070. The “zeta potential (mV)” value in data set [1] (setting [7]) is given as -3.79 mV. For the same molecule, the “particle size (nm)” value in data set [1] (setting [8]) was 96.63 nm. In data set [2], the “amount of luminescence (photons/sec) in liver” value (shortened to “amount … (photons/sec) in liver”) came out at 3.94E+09 photons/sec and the “relative amount of luminescence” value is on record as 2.59. Besides, in data set [3], the “cumulative luciferase luminescence intensity (RLU) in 24 hr” value was determined as 2.61E+07 RLU and the relative luminescence intensity was 1.42.
Consider `CCCCCCCC/C=C\CCCCCCCC(=O)Oc1ccc(CC(=O)OCCC2CCN(CCSSCCN3CCC(CCOC(=O)Cc4ccc(OC(=O)CCCC(=O)OC[C@H](COC(=O)CCCCCCC)OC(=O)CCCCCCC)cc4)CC3)CC2)cc1` [compound 5], for which the PdI in data set [1] (setting [6]) came to 0.112. In addition, the “zeta potential (mV)” value in data set [1] (setting [7]) is given as -4.68 mV. Also, in data set [1] (setting [8]), the “particle size (nm)” value is 106.10 nm. Moreover, in data set [2], the “amount … (photons/sec) in liver” value amounted to 3.76E+09 photons/sec and the “relative amount of luminescence” value is given as 2.48. Moreover, in data set [3], the “cumulative luciferase luminescence intensity (RLU) in 24 hr” value came out at 4.16E+07 RLU and the relative luminescence intensity came out at 2.25.
Regarding `CCCCCCCC/C=C\CCCCCCCC(=O)Oc1ccc(CC(=O)OCCC2CCN(CCSSCCN3CCC(CCOC(=O)Cc4ccc(OC(=O)CCCCCCC/C=C\CC(CCCCCC)OC(=O)C(CC)CCCC)cc4)CC3)CC2)cc1` (centres unmarked) [compound 166], in data set [1] (setting [9]), the “zeta potential (mV)” value was -2.5 mV. Further, in data set [1] (setting [10]), the PdI was determined as 0.047 and the “particle size (nm)” value was 89.3 nm. In data set [4], the “zeta potential (mV)” value is -2.99 mV, the PdI stood at 0.09 and the “particle size (nm)” value is on record as 130.5 nm. For the same molecule, in data set [5], the “amount … (photons/sec) in liver” value turned out to be 8.49E+09 photons/sec and the “relative amount of luminescence” value is recorded as 4.15.
Take `CCCCCC[C@@H](C/C=C\CCCCCCCC(=O)Oc1ccc(CC(=O)OCCC2CCN(CCSSCCN3CCC(CCOC(=O)Cc4ccc(OC(=O)CCCC(=O)OC[C@H](COC(C)=O)OC(C)=O)cc4)CC3)CC2)cc1)OC(=O)CCCCC` [compound 17]: the PdI in data set [1] (setting [6]) worked out at 0.061. Also, in data set [1] (setting [7]), the “zeta potential (mV)” value is -5.19 mV. The “particle size (nm)” value in data set [1] (setting [8]) was 127.90 nm. In data set [2], the “amount … (photons/sec) in liver” value amounted to 3.73E+09 photons/sec and the “relative amount of luminescence” value worked out at 2.45. In addition, in data set [3], the “cumulative luciferase luminescence intensity (RLU) in 24 hr” value is on record as 5.18E+07 RLU and the relative luminescence intensity came to 2.81.
In the case of `CCCCCCCC/C=C\CCCCCCCC(=O)Oc1ccc(CC(=O)OCCC2CCN(CCSSCCN3CCC(CCOC(=O)Cc4ccc(OC(=O)CCCC(=O)OC[C@H](COC(=O)CCCCC)OC(=O)CCCCC)cc4)CC3)CC2)cc1` [compound 13], the PdI in data set [1] (setting [6]) was determined as 0.073. In data set [1] (setting [7]), the “zeta potential (mV)” value is on record as -3.63 mV. In data set [1] (setting [8]), the “particle size (nm)” value is 94.42 nm. Moreover, in data set [3], the “cumulative luciferase luminescence intensity (RLU) in 24 hr” value is recorded as 1.24E+08 RLU and the relative luminescence intensity came out at 6.72.
Take `CCCCCCCC/C=C\CCCCCCCC(=O)Oc1ccc(CC(=O)OCCC2CCN(CCSSCCN3CCC(CCOC(=O)Cc4ccc(OC(=O)CCCC(=O)OC(CC(=O)OCCCC)(CC(=O)OCCCC)CC(=O)OCCCC)cc4)CC3)CC2)cc1` [compound 58]: the “zeta potential (mV)” value in data set [1] (setting [9]) is reported as -3.5 mV. Besides, in data set [1] (setting [10]), the PdI stood at 0.065 and the “particle size (nm)” value stood at 96.6 nm. In addition, in data set [4], the “zeta potential (mV)” value is given as -4.2 mV, the PdI came out at 0.071 and the “particle size (nm)” value is listed as 90.0 nm. Besides, in data set [5], the “amount … (photons/sec) in liver” value was found to be 1.72E+10 photons/sec and the “relative amount of luminescence” value was 8.40.
On to `CCCCCCC(C/C=C\CCCCCCCC(=O)Oc1ccc(CC(=O)OCCC2CCN(CCSSCCN3CCC(CCOC(=O)Cc4ccc(OC(=O)CCCCCCC/C=C\CC(CCCCCC)OC(=O)c5ccc(OCC)c(OCC)c5)cc4)CC3)CC2)cc1)OC(=O)c1ccc(OCC)c(OCC)c1` (centres unmarked) [compound 173], for which, in data set [1] (setting [9]), the “zeta potential (mV)” value is on record as -4.4 mV. Further, in data set [1] (setting [10]), the PdI amounted to 0.070 and the “particle size (nm)” value stood at 99.5 nm. Besides, in data set [4], the “zeta potential (mV)” value was -4.83 mV, the PdI stood at 0.035 and the “particle size (nm)” value was determined as 126.1 nm. In addition, in data set [5], the “amount … (photons/sec) in liver” value was determined as 9.37E+09 photons/sec and the “relative amount of luminescence” value came to 4.57.
